In patent US11352350B2, “IRAK degraders and uses thereof” (Kymera Therapeutics, Inc., priority 2018, dated 2022):
Like-named read-outs stand apart in the source and are kept apart here.

Assays:
IRAK4 = IRAK4 (Homo sapiens (Human), UniProt Q9NWZ3); experiment: IRAK4 MSD degradation in OCI-LY10; type: cell-based
Summary of the method: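 Remaining IRAK4 quantified by electrochemiluminescent MSD sandwich assay with two anti-IRAK4 antibodies. Compounds were dosed as 8 concentrations in 1:3 steps from a 1 to 10 μM final top on OCI-LY10 cells, incubated 4 to 24 h at 37° C. under 5% CO2. DC50 fitted with a three-parameter logistic curve.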

OCI-LY10 = experiment: CTG Cell Viability Assay - OCI-LY10; type: cell-based, human; settings: Homo sapiens, OCI-Ly10, 96 h, OCI-LY10, 4 days; read-out: CTG Cell Viability Assay - OCI-LY10: Average external-IC50
Summary of the method: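 Viability read by CellTiter-Glo luminescence after 4 days at 37° C under 5% CO2 with compound (top 10 μM final, 1:3 steps, 9 doses, DMSO 0.2%). Three-parameter logistic fit gave IC50.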

[1] = OCI-LY10, 4 hrs, MSD, read-out: IRAK4 MSD degradation in OCI-LY10 at 4 hrs: Average external-Abs DC50
[2] = OCI-LY10, 24 hrs, MSD, read-out: IRAK4 MSD degradation in OCI-LY10 at 24 hrs: Average external-Abs DC50

IRAK4, sequence (Q9NWZ3 whole entry): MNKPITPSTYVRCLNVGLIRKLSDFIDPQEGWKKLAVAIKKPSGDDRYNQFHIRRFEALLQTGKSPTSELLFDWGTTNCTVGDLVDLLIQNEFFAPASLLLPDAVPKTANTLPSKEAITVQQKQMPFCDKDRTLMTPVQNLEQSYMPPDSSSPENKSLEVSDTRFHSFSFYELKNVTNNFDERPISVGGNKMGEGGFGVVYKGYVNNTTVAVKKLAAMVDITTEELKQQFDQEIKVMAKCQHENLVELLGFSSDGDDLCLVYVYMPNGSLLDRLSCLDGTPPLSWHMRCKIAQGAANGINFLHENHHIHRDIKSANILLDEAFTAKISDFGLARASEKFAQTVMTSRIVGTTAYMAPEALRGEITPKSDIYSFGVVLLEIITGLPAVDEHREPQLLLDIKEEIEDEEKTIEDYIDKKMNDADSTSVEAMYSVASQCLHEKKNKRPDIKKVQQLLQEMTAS

Compound | DC50 (IRAK4; [1]) [µM] | DC50 (IRAK4; [2]) [µM] | IC50 (OCI-LY10) [µM] | DC50 (IRAK4; OCI-LY10, 4 hrs, read-out: IRAK4 MSD degradation in OCI-LY10 at 4 hrs: DC50) [µM] | DC50 (IRAK4; OCI-LY10, 24 hrs, read-out: IRAK4 MSD degradation in OCI-LY10 at 24 hrs: DC50) [µM]
CN1C(=O)CCC(N2Cc3c(OCc4ccc(CN5CCN(C[C@H]6CC[C@H](n7cc(NC(=O)c8cnn9ccc(N%10CCOCC%10)nc89)c(C(F)F)n7)CC6)CC5)cc4)cccc3C2=O)C1=O (stereo partly drawn) [I-322] | 0.1 to 1 | > 1 | > 1 |  | 
Cc1ccc(-n2nc(C3CCN(CCCCCOCCCc4cccc5c4n(C)c(=O)n5C4CCC(=O)NC4=O)CC3)cc2NC(=O)c2cnn3cccnc23)nc1 (stereo not drawn) [I-272] | > 1 | > 1 | > 1 |  | 
CN(C[C@H]1CC[C@H](n2cc(NC(=O)c3cnn4ccc(N5CCOCC5)nc34)c(C(F)F)n2)CC1)[C@H]1CC[C@H](Nc2cccc3c2C(=O)N(C2CCC(=O)NC2=O)C3=O)CC1 (stereo partly drawn) [I-355] | 0.01 to 0.1 | < 0.01 | 0.1 to 0.5 |  | 
O=C1CCC(N2C(=O)c3cccc(CNC4CC5(CCN(C[C@H]6CC[C@H](n7cc(NC(=O)c8cnn9ccc(N%10C[C@H]%11C[C@@H]%10CO%11)nc89)c(C(F)F)n7)CC6)CC5)C4)c3C2=O)C(=O)N1 (stereo partly drawn) [I-360] | 0.01 to 0.1 |  | > 1 |  | 
Cn1c(=O)n(C2CCC(=O)NC2=O)c2ccc(CCCOCC3CCN(C[C@H]4CC[C@H](n5cc(NC(=O)c6cnn7ccc(N8CCNCC8)nc67)c(C(F)F)n5)CC4)CC3)cc21 (stereo partly drawn) [I-163] | < 0.01 |  | > 1 |  | 
O=C1CCC(N2C(=O)c3cccc(NCCCCOC4CCN(C[C@H]5CC[C@H](n6cc(NC(=O)c7coc(-c8ccnc(NCC9CC9)c8)n7)c(C(F)F)n6)CC5)CC4)c3C2=O)C(=O)N1 (stereo partly drawn) [I-170] | 0.01 to 0.1 |  | < 0.05 |  | 
Cn1c(=O)n(C2CCC(=O)NC2=O)c2cccc(CCCOC3CCN(C[C@H]4CC[C@H](n5cc(NC(=O)c6cnn7ccc(N8CCOCC8)nc67)c(C(C)(C)O)n5)CC4)CC3)c21 (stereo partly drawn) [I-216] | 0.1 to 1 |  | > 1 |  | 
CN(Cc1ccc(OCCCNc2cccc3c2C(=O)N(C2CCC(=O)NC2=O)C3=O)nc1)C[C@H]1CC[C@H](n2cc(NC(=O)c3cnn4ccc(N5CCOCC5)nc34)c(C(F)F)n2)CC1 (stereo partly drawn) [I-477, N-(3-(difluoromethyl)-1-((1r,4r)-4-((((6-(3-((2-(2,6-dioxopiperidin-3-yl)-1,3-dioxoisoindolin-4-yl)amino)propoxy)pyridin-3-yl)methyl)(methyl)amino)methyl)cyclohexyl)-1H-pyrazol-4-yl)-5-morpholinopyrazolo[1,5-a] pyrimidine-3-carboxamide] |  |  | 0.5 to 1 | 0.01 to 0.1 | 0.01 to 0.1
Cn1c(=O)n(C2CCC(=O)NC2=O)c2ccc(CN3CCC(CCN4CCC(n5cc(NC(=O)c6coc(-c7ccnc(NCC8CC8)c7)n6)c(C(F)F)n5)CC4)CC3)cc21 (stereo not drawn) [I-181] | 0.1 to 1 |  | 0.1 to 0.5 |  | 
CN(C[C@H]1CC[C@H](n2cc(NC(=O)c3coc(-c4ccnc(NCC5CC5)c4)n3)c(C(F)F)n2)CC1)C1CCN(Cc2ccnc3c2c2ccccc2n3C2CCC(=O)NC2=O)CC1 (stereo partly drawn) [I-241] | 0.01 to 0.1 |  | 0.5 to 1 |  | 
CN(C[C@H]1CC[C@H](n2cc(NC(=O)c3coc(-c4ccnc(NCC5CC5)c4)n3)c(C(F)F)n2)CC1)C1CN(Cc2cccc3c2n(C)c(=O)n3C2CCC(=O)NC2=O)C1 (stereo partly drawn) [I-240] | < 0.01 |  | > 1 |  | 
CN(CCN(C)CC1CCC(n2cc(NC(=O)c3cnn4ccc(N5C[C@H]6C[C@@H]5CO6)nc34)c(C(F)F)n2)CC1)Cc1ccc(COc2cccc3c2C(=O)N(C2CCC(=O)NC2=O)C3=O)cc1 (stereo partly drawn) [I-335] | 0.1 to 1 |  | 0.5 to 1 |  | 
Cn1c(=O)n(C2CCC(=O)NC2=O)c2cccc(CCCOC3CCN([C@H]4CC[C@H](Nc5ncnc6ccc(C#N)cc56)CC4)CC3)c21 (stereo partly drawn) [I-304, 4-[[4-[4-[3-[1-(2,6-dioxo-3-piperidyl)-3-methyl-2-oxo-benzimidazol-4-yl]propoxy]-1-piperidyl]cyclohexyl]amino] quinazoline-6-carbonitrile] | > 1 | > 1 | > 1 |  | 
CC[C@@H]1[C@H](F)C(=O)N[C@@H]1COc1ncc(C#C[C@H]2CC[C@H](CN)CC2)c2cc(C(N)=O)c(OC)cc12 [I-314, 4-[2-[4-(Aminomethyl)cyclohexyl]ethynyl]-1-[[(2S,3S,4S)-3-ethyl-4-fluoro-5-oxo-pyrrolidin-2-yl]methoxy]-7-methoxy-isoquinoline-6-carboxamide] | > 1 | > 1 | > 1 |  | 
CN(C[C@H]1CC[C@H](n2cc(NC(=O)c3cnn4ccc(N5CCOCC5)nc34)c(C(F)F)n2)CC1)C1CCC(N(C)c2cccc3c2C(=O)N(C2CCC(=O)NC2=O)C3=O)CC1 (stereo partly drawn) [I-222] | 0.01 to 0.1 |  | 0.1 to 0.5 |  | 
Cn1c(=O)n(C2CCC(=O)NC2=O)c2ccc(CN3CCC(CC(=O)N4CCC(n5cc(NC(=O)c6coc(-c7ccnc(NCC8CC8)c7)n6)c(C(F)F)n5)CC4)CC3)cc21 (stereo not drawn) [I-148] | 0.1 to 1 |  | 0.1 to 0.5 |  | 
Cn1c(=O)n(C2CCC(=O)NC2=O)c2cccc(CCCOCC3CCN(C[C@H]4CC[C@H](n5cc(NC(=O)c6cnn7ccc(N8CCNCC8)nc67)c(C(F)F)n5)CC4)CC3)c21 (stereo partly drawn) [I-164] | < 0.01 |  | > 1 |  | 
CN1C(=O)CCC(N2C(=O)c3cccc(NCCCOC4CCN(C[C@H]5CC[C@H](n6cc(NC(=O)c7cnn8ccc(N9CCOCC9)nc78)c(C(F)F)n6)CC5)CC4)c3C2=O)C1=O (stereo partly drawn) [I-368] | > 1 |  | > 1 |  | 
CC[C@@H]1[C@H](F)C(=O)N[C@@H]1COc1ncc(C#C[C@H]2CC[C@H](CN(C)CCCc3ccc(CNc4cccc5c4C(=O)N(C4CCC(=O)NC4=O)C5=O)cc3)CC2)c2cc(C(N)=O)c(OC)cc12 (stereo partly drawn) [I-338] | 0.1 to 1 |  | < 0.05 |  | 
CC[C@H]1C(COc2ncc(C#C[C@H]3CC[C@H](CN4CCC(OCCCc5cccc6c5c5cccnc5n6C5CCC(=O)NC5=O)CC4)CC3)c3cc(C(N)=O)c(OC)cc23)NC(=O)[C@H]1F (stereo partly drawn) [I-205] | 0.1 to 1 | 0.01 to 0.1 | > 1 |  | 
CC[C@@H]1[C@H](F)C(=O)N[C@@H]1COc1ncc(C#C[C@H]2CC[C@H](CN(C)C3CCN(Cc4cccc5c4n(C)c(=O)n5C4CCC(=O)NC4=O)CC3)CC2)c2cc(C(N)=O)c(OC)cc12 (stereo partly drawn) [I-189] | 0.01 to 0.1 | < 0.01 | > 1 |  | 
Cn1c(=O)n(C2CCC(=O)NC2=O)c2cccc(CCCOC3CCN(C[C@H]4CC[C@H](n5cc(NC(=O)c6cnn7ccc(NCC8CC8)nc67)c(C(F)F)n5)CC4)CC3)c21 (stereo partly drawn) [I-156] | 0.01 to 0.1 |  | > 1 |  | 
O=C1CCC(N2C[C@@H](c3ccc(C#CCCOC4CCN(C[C@H]5CC[C@H](n6cc(NC(=O)C7CNN8C=CC(N9CCOCC9)=NC78)c(C(F)F)n6)CC5)CC4)cc3)OC2=O)C(=O)N1 (stereo partly drawn) [I-197] | 0.01 to 0.1 |  | > 1 |  | 
O=C1CCC(N2C(=O)c3cccc(NC4CCN(C[C@H]5CC[C@H](n6cc(NC(=O)c7cnn8ccc(N9CCOCC9)nc78)c(C(F)F)n6)CC5)CC4)c3C2=O)C(=O)N1 (stereo partly drawn) [I-218] | 0.1 to 1 | 0.1 to 1 | > 1 |  | 
CC[C@@H]1[C@H](F)C(=O)N[C@@H]1COc1ncc(C#C[C@H]2CC[C@@H](CN(C)CCCOCCCc3ccc4c(c3)n(C)c(=O)n4C3CCC(=O)NC3=O)CC2)c2cc(C(N)=O)c(OC)cc12 (stereo partly drawn) [I-230] | 0.1 to 1 | 0.1 to 1 | > 1 |  | 
CC[C@@H]1[C@H](F)C(=O)N[C@@H]1COc1ncc(C#C[C@H]2CC[C@H](CN3CCC(OCCCc4ccc5c(c4)n(C)c(=O)n5C4CCC(=O)NC4=O)CC3)CC2)c2cc(C(N)=O)c(OC)cc12 (stereo partly drawn) [I-187] | > 1 | < 0.01 | > 1 |  | 
